Experimental data published in ChEMBL document CHEMBL3885861, “Open TG-GATES”.

Organism: Rattus norvegicus
Experiment: Open TG-GATES - Regimen: Single
Assay type: toxicity, organism-based, Sprague-Dawley
Parameters: regimen Single, gender Male, age 6 weeks
Settings: in vivo, po, 100 mg/kg, route gavage, dose level Low; for APTT / Bas / Eos / Fbg / Hb / Ht / Lym / MCH / MCHC / MCV / Mono / Neu / PT / Plat / RBC / Ret / WBC: tissue Blood; for KIDNEY_L / KIDNEY_R / KIDNEY_TOTAL: tissue Kidney; for LIVER: tissue Liver; for A/G / ALP / ALT / AST / BUN / CRE / Ca / Cl / DBIL / GLC / IP / K / LDH / Na / PL / RALB / TBIL / TC / TG / TP / gamma-GTP: tissue Plasma

O=C(N[C@H](CO)[C@H](O)c1ccc([N+](=O)[O-])cc1)C(Cl)Cl [CHLORAMPHENICOL]
TERMINAL_BW (3 h): 219.7 g | APTT (3 h): 16 s | Bas (3 h): 0% | Eos (3 h): 0.6% | Fbg (3 h): 268.8 mg/dL | Hb (3 h): 13.2 g/dL | Ht (3 h): 38.6% | Lym (3 h): 76.2% | MCH (3 h): 21.9 pg | MCHC (3 h): 34.3% | MCV (3 h): 63.8 fL | Mono (3 h): 3% | Neu (3 h): 19.2% | PT (3 h): 14.6 s | Plat (3 h): 115.2 x10_4/uL | RBC (3 h): 608.2 x10_4/ul | Ret (3 h): 8.1% | WBC (3 h): 83.6 x10_2/uL | KIDNEY_L (3 h): 0.9 g | KIDNEY_R (3 h): 0.9 g | KIDNEY_TOTAL (3 h): 1.9 g | LIVER (3 h): 9.6 g | A/G (3 h): 0.8 | ALP (3 h): 1429.8 IU/L | ALT (3 h): 43 IU/L | AST (3 h): 74.2 IU/L | BUN (3 h): 10.2 mg/dL | CRE (3 h): 0.2 mg/dL | Ca (3 h): 11.5 mg/dL | Cl (3 h): 105 meq/L | DBIL (3 h): 0.014 mg/dL | GLC (3 h): 180.8 mg/dL | IP (3 h): 8.7 mg/dL | K (3 h): 4.2 meq/L | LDH (3 h): 58.6 IU/L | Na (3 h): 140.4 meq/L | PL (3 h): 136.6 mg/dL | RALB (3 h): 2.5 g/dL | TBIL (3 h): 0.06 mg/dL | TC (3 h): 78.4 mg/dL | TG (3 h): 58.4 mg/dL | TP (3 h): 5.4 g/dL | gamma-GTP (3 h): 1.2 IU/L | TERMINAL_BW (6 h): 219.6 g | APTT (6 h): 17.7 s | Bas (6 h): 0% | Eos (6 h): 0.8% | Fbg (6 h): 283.6 mg/dL | Hb (6 h): 13.4 g/dL | Ht (6 h): 42.9% | Lym (6 h): 78.2% | MCH (6 h): 21.3 pg | MCHC (6 h): 31.1% | MCV (6 h): 68.5 fL | Mono (6 h): 2.2% | Neu (6 h): 18.2% | PT (6 h): 14.7 s | Plat (6 h): 106.7 x10_4/uL | RBC (6 h): 627.6 x10_4/ul | Ret (6 h): 7.9% | WBC (6 h): 71.4 x10_2/uL | KIDNEY_L (6 h): 1 g | KIDNEY_R (6 h): 1 g | KIDNEY_TOTAL (6 h): 1.9 g | LIVER (6 h): 9.1 g | A/G (6 h): 0.9 | ALP (6 h): 1362.6 IU/L | ALT (6 h): 39.2 IU/L | AST (6 h): 75.2 IU/L | BUN (6 h): 9 mg/dL | CRE (6 h): 0.2 mg/dL | Ca (6 h): 11.4 mg/dL | Cl (6 h): 105 meq/L | DBIL (6 h): 0.012 mg/dL | GLC (6 h): 176.8 mg/dL | IP (6 h): 9.6 mg/dL | K (6 h): 4.2 meq/L | LDH (6 h): 89.4 IU/L | Na (6 h): 141 meq/L | PL (6 h): 126.2 mg/dL | RALB (6 h): 2.5 g/dL | TBIL (6 h): 0.066 mg/dL | TC (6 h): 72.6 mg/dL | TG (6 h): 48.4 mg/dL | TP (6 h): 5.4 g/dL | gamma-GTP (6 h): 1.2 IU/L | TERMINAL_BW (9 h): 221.1 g | APTT (9 h): 16.6 s | Bas (9 h): 0% | Eos (9 h): 1% | Fbg (9 h): 281.8 mg/dL | Hb (9 h): 13.3 g/dL | Ht (9 h): 42.4% | Lym (9 h): 78.6% | MCH (9 h): 21.2 pg | MCHC (9 h): 31.3% | MCV (9 h): 67.8 fL | Mono (9 h): 2% | Neu (9 h): 17.6% | PT (9 h): 14.8 s | Plat (9 h): 115.3 x10_4/uL | RBC (9 h): 626.6 x10_4/ul | Ret (9 h): 7.9% | WBC (9 h): 61.1 x10_2/uL | KIDNEY_L (9 h): 0.9 g | KIDNEY_R (9 h): 0.9 g | KIDNEY_TOTAL (9 h): 1.9 g | LIVER (9 h): 9 g | A/G (9 h): 0.9 | ALP (9 h): 1589.8 IU/L | ALT (9 h): 38.8 IU/L | AST (9 h): 67.2 IU/L | BUN (9 h): 9 mg/dL | CRE (9 h): 0.2 mg/dL | Ca (9 h): 11.4 mg/dL | Cl (9 h): 105.2 meq/L | DBIL (9 h): 0.014 mg/dL | GLC (9 h): 181 mg/dL | IP (9 h): 10 mg/dL | K (9 h): 4.2 meq/L | LDH (9 h): 61.4 IU/L | Na (9 h): 140.8 meq/L | PL (9 h): 145.6 mg/dL | RALB (9 h): 2.6 g/dL | TBIL (9 h): 0.072 mg/dL | TC (9 h): 83.2 mg/dL | TG (9 h): 47.4 mg/dL | TP (9 h): 5.5 g/dL | gamma-GTP (9 h): 1 IU/L | TERMINAL_BW (24 h): 224.4 g | APTT (24 h): 16.8 s | Bas (24 h): 0% | Eos (24 h): 1% | Fbg (24 h): 264.4 mg/dL | Hb (24 h): 13.3 g/dL | Ht (24 h): 41.6% | Lym (24 h): 79.8% | MCH (24 h): 21.4 pg | MCHC (24 h): 32% | MCV (24 h): 66.7 fL | Mono (24 h): 3.6% | Neu (24 h): 15% | PT (24 h): 14.8 s | Plat (24 h): 123 x10_4/uL | RBC (24 h): 623.4 x10_4/ul | Ret (24 h): 7% | WBC (24 h): 81.1 x10_2/uL | KIDNEY_L (24 h): 1 g | KIDNEY_R (24 h): 1 g | KIDNEY_TOTAL (24 h): 1.9 g | LIVER (24 h): 9.4 g | A/G (24 h): 0.9 | ALP (24 h): 1622.8 IU/L | ALT (24 h): 48.2 IU/L | AST (24 h): 80.4 IU/L | BUN (24 h): 15 mg/dL | CRE (24 h): 0.2 mg/dL | Ca (24 h): 11.4 mg/dL | Cl (24 h): 105.8 meq/L | DBIL (24 h): 0.012 mg/dL | GLC (24 h): 186.6 mg/dL | IP (24 h): 8.6 mg/dL | K (24 h): 4.1 meq/L | LDH (24 h): 61.4 IU/L | Na (24 h): 141.6 meq/L | PL (24 h): 133 mg/dL | RALB (24 h): 2.6 g/dL | TBIL (24 h): 0.058 mg/dL | TC (24 h): 76.8 mg/dL | TG (24 h): 53.6 mg/dL | TP (24 h): 5.6 g/dL | gamma-GTP (24 h): 1 IU/L
